What was measured:
[1] = tested on: GIST patients; experiment: Example 2 study: treatment-emergent adverse events; format: in vivo, human
Protocol: Grade 3 or 4 treatment-emergent adverse events (TEAEs) in >5% of patients were lipase increased (18%; n=33), anemia (11%; n=20), hypertension (7%; n=13) and abdominal pain (6%; n=11). 13% of patients (n=24) experienced TEAEs leading to study treatment discontinuation, 17% of patients (n=31) experienced TEAEs leading to dose reduction and 49% of patients (n=88) had TEAEs leading to study drug interruption. Table 3 lists TEAEs >10% for GIST patients treated with ≥100 mg of ripretinib daily.

[2] = tested on: GIST; experiment: Clinical study in second-line through fourth-line plus GIST, ≥100 mg daily (Example 2): efficacy; format: in vivo, human
Protocol: Results. Data from 178 GIST patients receiving ripretinib at doses of ≥100 mg daily are noted in Table 2. The table includes investigator-assessed objective response rate (ORR) by best response, disease control rate (DCR) and median progression free survival (mPFS), all of which were determined by Response Evaluation Criteria in Solid Tumors (RECIST) version 1.1.
In Table 2, (1) indicates overall number of patients (n=178) remains the same as prior data presented at ESMO 2018; based on additional data cleaning, one patient from each of 2nd line and 4th/≥4th line were reclassified as 3rd line patients; (2) refers to median treatment durations were: 2nd line=44 weeks, 3rd line=48 weeks, 4th line=46 weeks and ≥4th line=29 weeks; (3) refers to including 60 patients who elected for intra-patient dose escalation from 150 mg QD to 150 mg BID; and (4) refers to the number of patients including 60 patients from 4th line.

[3] = ≥100 mg daily, col c2 (no head; Grade 3 or 4)
[4] = ≥100 mg daily, col c3 (no head; c1+c2)

CCn1c(=O)c(-c2cc(NC(=O)Nc3ccccc3)c(F)cc2Br)cc2cnc(NC)cc21 [ripretinib]
tolerability ([1]; GIST patients ≥100 mg daily): generally well tolerated | Grade 3 or 4 TEAE abdominal pain ([1]; ≥100 mg daily): 6% | Grade 3 or 4 TEAE anemia ([1]; ≥100 mg daily): 11% | Grade 3 or 4 TEAE hypertension ([1]; ≥100 mg daily): 7% | Grade 3 or 4 TEAE lipase increased ([1]; ≥100 mg daily): 18% | patients with TEAEs leading to dose reduction ([1]; ≥100 mg daily): 17% | patients with TEAEs leading to study drug interruption ([1]; ≥100 mg daily): 49% | patients with TEAEs leading to study treatment discontinuation ([1]; ≥100 mg daily): 13% | TEAE: Abdominal pain ([1]; ≥100 mg daily, col c1): 33 (18%) | TEAE: Actinic keratosis ([1]; ≥100 mg daily, col c1): 25 (14%) | TEAE: Alopecia ([1]; ≥100 mg daily, col c1): 102 (57%) | TEAE: Amylase increased ([1]; ≥100 mg daily, col c1): 19 (11%) | TEAE: Anemia ([1]; ≥100 mg daily, col c1): 18 (10%) | TEAE: Arthralgia ([1]; ≥100 mg daily, col c1): 40 (22%) | TEAE: Back Pain ([1]; ≥100 mg daily, col c1): 30 (17%) | TEAE: Blood bilirubin increase ([1]; ≥100 mg daily, col c1): 16 (9%) | TEAE: Blood creatine phosphokinase increased ([1]; ≥100 mg daily, col c1): 13 (7%) | TEAE: Constipation ([1]; ≥100 mg daily, col c1): 67 (37%) | TEAE: Cough ([1]; ≥100 mg daily, col c1): 37 (21%) | TEAE: Decreased appetite ([1]; ≥100 mg daily, col c1): 60 (34%) | TEAE: Diarrhea ([1]; ≥100 mg daily, col c1): 50 (28%) | TEAE: Dizziness ([1]; ≥100 mg daily, col c1): 29 (16%) | TEAE: Dry skin ([1]; ≥100 mg daily, col c1): 37 (21%) | TEAE: Dysgeusia ([1]; ≥100 mg daily, col c1): 20 (11%) | TEAE: Dyspnea ([1]; ≥100 mg daily, col c1): 32 (18%) | TEAE: Fatigue ([1]; ≥100 mg daily, col c1): 94 (53%) | TEAE: Headache ([1]; ≥100 mg daily, col c1): 33 (18%) | TEAE: Hypertension ([1]; ≥100 mg daily, col c1): 25 (14%) | TEAE: Hypokalaemia ([1]; ≥100 mg daily, col c1): 21 (12%) | TEAE: Hypomagnesaemia ([1]; ≥100 mg daily, col c1): 18 (10%) | TEAE: Hypophosphataemia ([1]; ≥100 mg daily, col c1): 17 (10%) | TEAE: Insomnia ([1]; ≥100 mg daily, col c1): 21 (12%) | TEAE: Lipase increased ([1]; ≥100 mg daily, col c1): 18 (10%) | TEAE: Muscle spasms ([1]; ≥100 mg daily, col c1): 47 (26%) | TEAE: Myalgia ([1]; ≥100 mg daily, col c1): 79 (44%) | TEAE: Nausea ([1]; ≥100 mg daily, col c1): 77 (43%) | TEAE: Pain in extremity ([1]; ≥100 mg daily, col c1): 18 (10%) | TEAE: Palmar-plantar erythrodysaesthesia syndrome ([1]; ≥100 mg daily, col c1): 71 (40%) | TEAE: Pruritus ([1]; ≥100 mg daily, col c1): 18 (10%) | TEAE: Rash ([1]; ≥100 mg daily, col c1): 27 (15%) | TEAE: Rash maculo-papular ([1]; ≥100 mg daily, col c1): 18 (10%) | TEAE: Seborrhoeic keratosis ([1]; ≥100 mg daily, col c1): 21 (12%) | TEAE: Skin papilloma ([1]; ≥100 mg daily, col c1): 17 (10%) | TEAE: Upper respiratory tract infection ([1]; ≥100 mg daily, col c1): 18 (10%) | TEAE: Urinary tract infection ([1]; ≥100 mg daily, col c1): 16 (9%) | TEAE: Vision blurred ([1]; ≥100 mg daily, col c1): 17 (10%) | TEAE: Vomiting ([1]; ≥100 mg daily, col c1): 42 (24%) | TEAE: Weight decreased ([1]; ≥100 mg daily, col c1): 51 (29%) | TEAE: Abdominal pain [1, 3]: 11 (6%) | TEAE: Actinic keratosis [1, 3]: 0 (0%) | TEAE: Alopecia [1, 3]: 0 (0%) | TEAE: Amylase increased [1, 3]: 2 (1%) | TEAE: Anemia [1, 3]: 20 (11%) | TEAE: Arthralgia [1, 3]: 0 (0%) | TEAE: Back Pain [1, 3]: 2 (1%) | TEAE: Blood bilirubin increase [1, 3]: 5 (3%) | TEAE: Blood creatine phosphokinase increased [1, 3]: 5 (3%) | TEAE: Constipation [1, 3]: 0 (0%) | TEAE: Cough [1, 3]: 0 (0%) | TEAE: Decreased appetite [1, 3]: 2 (1%) | TEAE: Diarrhea [1, 3]: 3 (2%) | TEAE: Dizziness [1, 3]: 0 (0%) | TEAE: Dry skin [1, 3]: 0 (0%) | TEAE: Dysgeusia [1, 3]: 0 (0%) | TEAE: Dyspnea [1, 3]: 4 (2%) | TEAE: Fatigue [1, 3]: 4 (2%) | TEAE: Headache [1, 3]: 1 (1%) | TEAE: Hypertension [1, 3]: 13 (7%) | TEAE: Hypokalaemia [1, 3]: 5 (3%) | TEAE: Hypomagnesaemia [1, 3]: 0 (0%) | TEAE: Hypophosphataemia [1, 3]: 8 (5%) | TEAE: Insomnia [1, 3]: 0 (0%) | TEAE: Lipase increased [1, 3]: 33 (18%) | TEAE: Muscle spasms [1, 3]: 0 (0%) | TEAE: Myalgia [1, 3]: 0 (0%) | TEAE: Nausea [1, 3]: 1 (1%) | TEAE: Pain in extremity [1, 3]: 1 (1%) | TEAE: Palmar-plantar erythrodysaesthesia syndrome [1, 3]: 1 (1%) | TEAE: Pruritus [1, 3]: 0 (0%) | TEAE: Rash [1, 3]: 0 (0%) | TEAE: Rash maculo-papular [1, 3]: 0 (0%) | TEAE: Seborrhoeic keratosis [1, 3]: 0 (0%) | TEAE: Skin papilloma [1, 3]: 0 (0%) | TEAE: Upper respiratory tract infection [1, 3]: 0 (0%) | TEAE: Urinary tract infection [1, 3]: 4 (2%) | TEAE: Vision blurred [1, 3]: 0 (0%) | TEAE: Vomiting [1, 3]: 2 (1%) | TEAE: Weight decreased [1, 3]: 1 (1%) | TEAE: Abdominal pain [1, 4]: 44 (25%) | TEAE: Actinic keratosis [1, 4]: 25 (14%) | TEAE: Alopecia [1, 4]: 102 (57%) | TEAE: Amylase increased [1, 4]: 21 (12%) | TEAE: Anemia [1, 4]: 38 (21%) | TEAE: Arthralgia [1, 4]: 40 (22%) | TEAE: Back Pain [1, 4]: 32 (18%) | TEAE: Blood bilirubin increase [1, 4]: 21 (12%) | TEAE: Blood creatine phosphokinase increased [1, 4]: 18 (10%) | TEAE: Constipation [1, 4]: 67 (37%) | TEAE: Cough [1, 4]: 37 (21%) | TEAE: Decreased appetite [1, 4]: 62 (35%) | TEAE: Diarrhea [1, 4]: 53 (30%) | TEAE: Dizziness [1, 4]: 29 (16%) | TEAE: Dry skin [1, 4]: 37 (21%) | TEAE: Dysgeusia [1, 4]: 20 (11%) | TEAE: Dyspnea [1, 4]: 36 (20%) | TEAE: Fatigue [1, 4]: 98 (55%) | TEAE: Headache [1, 4]: 34 (19%) | TEAE: Hypertension [1, 4]: 38 (21%) | TEAE: Hypokalaemia [1, 4]: 26 (15%) | TEAE: Hypomagnesaemia [1, 4]: 18 (10%) | TEAE: Hypophosphataemia [1, 4]: 25 (14%) | TEAE: Insomnia [1, 4]: 21 (12%) | TEAE: Lipase increased [1, 4]: 51 (29%) | TEAE: Muscle spasms [1, 4]: 47 (26%) | TEAE: Myalgia [1, 4]: 79 (44%) | TEAE: Nausea [1, 4]: 78 (44%) | TEAE: Pain in extremity [1, 4]: 19 (11%) | TEAE: Palmar-plantar erythrodysaesthesia syndrome [1, 4]: 72 (40%) | TEAE: Pruritus [1, 4]: 18 (10%) | TEAE: Rash [1, 4]: 27 (15%) | TEAE: Rash maculo-papular [1, 4]: 18 (10%) | TEAE: Seborrhoeic keratosis [1, 4]: 21 (12%) | TEAE: Skin papilloma [1, 4]: 17 (10%) | TEAE: Upper respiratory tract infection [1, 4]: 18 (10%) | TEAE: Urinary tract infection [1, 4]: 20 (11%) | TEAE: Vision blurred [1, 4]: 17 (10%) | TEAE: Vomiting [1, 4]: 44 (25%) | TEAE: Weight decreased [1, 4]: 52 (29%) | Disease Control Rate at 3 Months ([2]; Fourth-Line (n = 60)): 73% | Median Progression Free Survival (mPFS) ([2]; Fourth-Line (n = 60)): 30 weeks | Objective Response Rate by Best Response, includes unconfirmed ([2]; Fourth-Line (n = 60)): 15% | Objective Response Rate, confirmed only ([2]; Fourth-Line (n = 60)): 8% | Disease Control Rate at 3 Months ([2]; Second-Line (n = 37)): 81% | Median Progression Free Survival (mPFS) ([2]; Second-Line (n = 37)): 42 weeks | Objective Response Rate, confirmed only ([2]; Second-Line (n = 37)): 22% | Objective Response Rate by Best Response, includes unconfirmed ([2]; Second-Line (n = 37), ≥100 mg daily, RECIST 1.1, investigator): 30% | Disease Control Rate at 3 Months ([2]; Third-Line (n = 31)): 80% | Median Progression Free Survival (mPFS) ([2]; Third-Line (n = 31)): 40 weeks | Objective Response Rate by Best Response, includes unconfirmed ([2]; Third-Line (n = 31)): 23% | Objective Response Rate, confirmed only ([2]; Third-Line (n = 31)): 13% | Disease Control Rate at 3 Months ([2]; ≥Fourth-Line (n = 110)): 66% | Median Progression Free Survival (mPFS) ([2]; ≥Fourth-Line (n = 110)): 24 weeks | Objective Response Rate by Best Response, includes unconfirmed ([2]; ≥Fourth-Line (n = 110)): 11% | Objective Response Rate, confirmed only ([2]; ≥Fourth-Line (n = 110)): 7%

Source: US11779572B1, “Methods of treating gastrointestinal stromal tumors” (Deciphera Pharmaceuticals, LLC, priority 2022, dated 2023)
